Tests used:
[1] = Study 4: pharmacokinetics of plasma kisspeptin after i.p. injection (radioimmunoassay); assay type: in vivo, mouse; conditions: male mice, 1 nmol i.p.
Experimental: Male mice received a single i.p. injection of 1 nmol KP-10 or 1 nmol KP-54. 100 μl of blood was collected from the lateral tail vein from groups of mice (n = 4) for each time point (0, 1 min, 2 min, 5 min, 10 min, 30 min, 60 min and 120 min). Terminal bleeds were collected from the vena cava. Blood was mixed with 5 μl EDTA, centrifuged at 10,000 x g for 10 min at 4°C to obtain the plasma fraction, and stored at -20°C until assayed. Kisspeptin concentrations were measured using an established in house competitive radioimmunoassay (RIA, [5]. Briefly, this RIA uses a sheep polyclonal antibody (GQ2), raised against human KP-54, which cross-reacts with human KP-54, KP-14 and KP-10.
(§1) 3–5 month old wild-type (129S6/SvEv) male mice were used in this study. The mice were housed in open cages on a 12 hour light cycle (lights on at 0700 h) at a controlled temperature (22°C), and were provided with food and water ad libitum. All experiments were performed under the authority of a United Kingdom Home Office Project License and were approved by a Cambridge Animal Ethics Committee.

plasma LH levels [2] = test: Study 2: plasma LH after a high dose or multiple i.p. injections of KP-10; assay type: in vivo, mouse; conditions: male mice, single i.p. injection of 1 nmol, mean ± s.e.m., n = 10
Experimental: Male mice received a single intraperitoneal (i.p.) injection of 100 μl of PBS (vehicle control), KP-10 (1 nmol), KP-10 (10 nmol), KP-54 (1 nmol) or a series of six i.p. injections (every 10 minutes over one hour) of KP-10 (1 nmol) to extend the duration of action of KP-10. 100 μl of blood was collected from a tail vein 10 min after the final injection and the mice were killed 2 hours after treatment by an injection of pentobarbital (100mg/kg i.p.). Blood was collected from the vena cava, mixed with 5 μl EDTA, centrifuged at 10,000 x g for 10 min at 4°C to obtain the plasma fraction, and stored at -20°C until assayed.
as §1
Plasma LH was assayed using a commercial ELISA kit (LH Ultrasensitive Rodent ELISA, Endocrine Technologies Cat Number ERK 7010+) with a sensitivity of 0.3 ng/ml and 7% intra-assay and 10% inter-assay coefficients of variation. […]

plasma LH levels [3] = test: Study 1: plasma LH after a single i.p. injection of kisspeptin; assay type: in vivo, mouse; conditions: male mice, single i.p. injection of 1 nmol, ELISA, mean ± s.e.m.
Experimental: Male mice received a single intraperitoneal (i.p.) injection of 100 μl of PBS (vehicle control; 137 mM NaCl, 2.7 mM KCl, 10 mM Na2HPO4, 1.8mM KH2PO4, pH 7.4), KP-10 (1 nmol), or KP-54 (1 nmol) in PBS and LH levels in the plasma measured at 10 min and 2 h after treatment to compare early and late responses points. We chose the 10 min point as some studies have shown that KP-10 injection results in maximal LH secretion after 10–15 min [16, 18]. 100 μl of blood was collected from a tail vein 10 min after injection, mixed with 5 μl EDTA and centrifuged at 10,000 x g for 10 min at 4°C. The plasma supernatant was stored at -20°C until assayed. Two hours after injection, mice were deeply anaesthetized with pentobarbital (100mg/kg i.p.), ~300 μl of blood was rapidly collected from the vena cava and processed as described above. Finally the mice were perfused intracardially with 20 ml of 4% paraformaldehyde in PBS. Brains were removed and incubated for 1 h in the same fixative as for perfusion and placed in PBS for sectioning and immunohistochemistry processing.
3–5 month old wild-type (129S6/SvEv) male mice were used in this study. The mice were housed in open cages on a 12 hour light cycle (lights on at 0700 h) at a controlled temperature (22°C), and were provided with food and water ad libitum. […]

[4] = men / humans; ref [5], [30] (KP-10), ref [5] (KP-54); cited from earlier work
From the text: It should be noted, however that the RIA used to measure KP-54 may also detect shorter breakdown products of this protein that might be biologically inert. It is likely that the lack of GnRH neuronal activation and sustained LH release by KP-10 is mainly due to its instability. It is noteworthy that we failed ...

- level at time molar at 0.5 h ([1]; 129S6/SvEv, mouse, plasma, ip, RIA, mean ± SEM, n = 4, read-out: plasma kisspeptin level at 30 min post-injection): 13.2 ± 4.36 nM
- level at time molar at 1 h ([1]; 129S6/SvEv, mouse, plasma, ip, RIA, mean ± SEM, n = 4, read-out: plasma kisspeptin level at 60 min post-injection): 5.03 ± 0.787 nM
- level at time molar at 2 h ([1]; 129S6/SvEv, mouse, plasma, ip, RIA, mean ± SEM, n = 4, read-out: plasma kisspeptin level at 120 min post-injection): 1.19 ± 0.33 nM
- peak (maximum) plasma kisspeptin level ([1]; RIA (GQ2 antibody), mean ± SEM, n = 4 per time point): 12292 ± 2655 pmol/L
- time of peak plasma kisspeptin level post-injection ([1]; RIA, n = 4 per time point): 5 min
- plasma half-life ([1]; estimated from RIA plasma levels, RIA recognises all forms of Kp, may include breakdown products): around 32 min
- fraction of the injected peptide entering the bloodstream after intraperitoneal injection ([1]; assuming a total blood volume of approximately 5 ml): ~6%
SMILES: CC[C@H](C)[C@H](NC(=O)[C@H](CCC(N)=O)NC(=O)[C@H](CCCNC(=N)N)NC(=O)[C@H](CO)NC(=O)[C@H](Cc1c[nH]cn1)NC(=O)[C@@H]1CCCN1C(=O)[C@H](C)NC(=O)[C@H](CO)NC(=O)[C@H](CC(C)C)NC(=O)CNC(=O)[C@@H]1CCCN1C(=O)[C@H](CCC(N)=O)NC(=O)[C@H](CCC(N)=O)NC(=O)[C@H](CCCNC(=N)N)NC(=O)[C@H](CO)NC(=O)CNC(=O)[C@H](CO)NC(=O)[C@H](CO)NC(=O)[C@H](CCC(=O)O)NC(=O)[C@@H]1CCCN1C(=O)[C@@H]1CCCN1C(=O)[C@@H]1CCCN1C(=O)[C@H](CO)NC(=O)[C@H](CC(C)C)NC(=O)[C@H](CO)NC(=O)[C@@H](NC(=O)CN)[C@@H](C)O)C(=O)N1CCC[C@H]1C(=O)N[C@@H](C)C(=O)N1CCC[C@H]1C(=O)N[C@@H](CCC(N)=O)C(=O)NCC(=O)N[C@@H](C)C(=O)N[C@H](C(=O)N[C@@H](CC(C)C)C(=O)N[C@H](C(=O)N[C@@H](CCC(N)=O)C(=O)N[C@@H](CCCNC(=N)N)C(=O)N[C@@H](CCC(=O)O)C(=O)N[C@@H](CCCCN)C(=O)N[C@@H](CC(=O)O)C(=O)N[C@@H](CC(C)C)C(=O)N1CCC[C@H]1C(=O)N[C@@H](CC(N)=O)C(=O)N[C@@H](Cc1ccc(O)cc1)C(=O)N[C@@H](CC(N)=O)C(=O)N[C@@H](Cc1c[nH]c2ccccc12)C(=O)N[C@@H](CC(N)=O)C(=O)N[C@@H](CO)C(=O)N[C@@H](Cc1ccccc1)C(=O)NCC(=O)N[C@@H](CC(C)C)C(=O)N[C@@H](CCCNC(=N)N)C(=O)N[C@@H](Cc1ccccc1)C(N)=O)C(C)C)C(C)C [KP-54]
- plasma LH level at 2 hrs (plasma LH levels [2]): 9.62 ± 1.67 ng/mL
- plasma LH level 10 min post-injection (plasma LH levels [3]; tail vein blood, n = 8, PBS 0.06 ± 0.04): 5.70 ± 0.69 ng/mL
- plasma LH level 2 hours post-injection (plasma LH levels [3]; vena cava blood, n = 8): 6.42 ± 1.74 ng/mL
- half-life in the blood stream in humans [4]: 28 min

Source: paper PMC5413024, “Mechanistic insights into the more potent effect of KP-54 compared to KP-10 in vivo” (PLoS ONE, 2017)
